Experiments:
[1] = molecular target: T1, rat TRPV1 (Rattus norvegicus, UniProt O35433); assay: Functional assay: block of capsaicin-induced Ca2+ influx, rat assay (rTRPV1/HEK293, FLIPR); type: cell-based; conditions: rTRPV1/HEK293 cells, capsaicin challenge, Fluo-3 fluorescence; mean; > value = solubility limit in assay medium
T1 construct: expressed in transfected cells; host or cells: HEK293 (rTRPV1/HEK293), geneticin selection
In short: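 Compounds, as free base or TFA salt, tested from 10 μM in three-fold steps on rTRPV1-transfected HEK293 cells, with 30 min preincubation in low-calcium (20 μM) buffer. Capsaicin-evoked Ca2+ influx measured by FLIPR fluo3 signal before and 100 s after addition. Averaged IC50 from non-linear fits.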

[2] = molecular target: T2, human TRPV1 (Homo sapiens, UniProt Q8NER1); assay: Functional assay: block of capsaicin-induced Ca2+ influx, human assay (hTRPV1/HEK293, FLIPR); type: cell-based; conditions: hTRPV1/HEK293 cells, 150 nM capsaicin challenge, Fluo-3 fluorescence; mean; > value = solubility limit in assay medium
T2 construct: expressed in transfected cells; host or cells: HEK293 (hTRPV1/HEK293), zeocin selection
T2 sequence (Q8NER1 whole entry): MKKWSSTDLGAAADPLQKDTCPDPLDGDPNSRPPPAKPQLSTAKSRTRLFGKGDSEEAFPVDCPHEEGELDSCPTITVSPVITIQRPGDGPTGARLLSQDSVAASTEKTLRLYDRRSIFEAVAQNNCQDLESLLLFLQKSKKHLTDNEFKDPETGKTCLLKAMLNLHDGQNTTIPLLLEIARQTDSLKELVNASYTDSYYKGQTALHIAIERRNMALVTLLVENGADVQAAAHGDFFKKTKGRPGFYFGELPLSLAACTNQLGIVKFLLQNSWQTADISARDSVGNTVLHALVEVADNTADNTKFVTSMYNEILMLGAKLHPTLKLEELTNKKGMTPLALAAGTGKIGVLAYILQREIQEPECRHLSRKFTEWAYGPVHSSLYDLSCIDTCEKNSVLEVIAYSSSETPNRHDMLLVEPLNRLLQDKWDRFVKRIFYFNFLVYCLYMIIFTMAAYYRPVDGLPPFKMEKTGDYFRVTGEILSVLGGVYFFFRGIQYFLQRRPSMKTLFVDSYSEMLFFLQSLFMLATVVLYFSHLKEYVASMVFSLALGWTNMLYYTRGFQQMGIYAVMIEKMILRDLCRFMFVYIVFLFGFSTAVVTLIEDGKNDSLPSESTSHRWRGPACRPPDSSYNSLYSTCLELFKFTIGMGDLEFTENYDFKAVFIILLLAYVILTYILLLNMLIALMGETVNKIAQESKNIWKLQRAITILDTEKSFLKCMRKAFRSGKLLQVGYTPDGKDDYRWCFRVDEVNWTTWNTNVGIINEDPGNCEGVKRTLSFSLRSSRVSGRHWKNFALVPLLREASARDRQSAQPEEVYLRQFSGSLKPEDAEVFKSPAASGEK
In short: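 HEK293 cells stably expressing human TRPV1, fluo3-loaded, preincubated 30 min with compound (serial 3-fold dilutions from 10 μM, duplicate) in 20 μM Ca2+ buffer. Capsaicin response taken as fluo3 fluorescence change before vs 100 s after agonist; IC50 by non-linear regression, mean values; free base or TFA salt.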

T1 sequence (O35433 whole entry): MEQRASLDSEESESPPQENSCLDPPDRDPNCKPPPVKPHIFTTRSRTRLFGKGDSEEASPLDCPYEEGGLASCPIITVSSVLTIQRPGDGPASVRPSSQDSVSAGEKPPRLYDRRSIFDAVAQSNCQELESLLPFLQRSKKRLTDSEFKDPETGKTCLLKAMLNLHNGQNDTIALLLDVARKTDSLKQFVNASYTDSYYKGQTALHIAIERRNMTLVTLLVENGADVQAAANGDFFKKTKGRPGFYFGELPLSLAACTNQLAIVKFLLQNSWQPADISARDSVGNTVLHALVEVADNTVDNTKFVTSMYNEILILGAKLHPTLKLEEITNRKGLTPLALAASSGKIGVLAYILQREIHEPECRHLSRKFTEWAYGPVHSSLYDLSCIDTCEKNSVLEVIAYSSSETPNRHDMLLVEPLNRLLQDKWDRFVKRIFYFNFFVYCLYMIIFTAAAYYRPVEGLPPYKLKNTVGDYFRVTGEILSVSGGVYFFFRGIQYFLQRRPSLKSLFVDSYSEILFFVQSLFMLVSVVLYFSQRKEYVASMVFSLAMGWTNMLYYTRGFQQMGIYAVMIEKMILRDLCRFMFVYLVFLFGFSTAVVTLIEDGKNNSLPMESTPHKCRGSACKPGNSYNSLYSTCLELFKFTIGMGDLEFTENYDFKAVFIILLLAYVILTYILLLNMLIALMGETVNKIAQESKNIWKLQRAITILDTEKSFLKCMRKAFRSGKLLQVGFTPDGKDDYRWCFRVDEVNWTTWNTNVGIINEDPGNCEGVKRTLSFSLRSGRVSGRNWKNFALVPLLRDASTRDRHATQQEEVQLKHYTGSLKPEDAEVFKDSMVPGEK

| IC50 [1] [nM] | IC50 [2] [nM] | SMILES |
| --- | --- | --- |
| 4 | 6 | CS(=O)(=O)c1ccc(Nc2ncnc3sc(Nc4c(Cl)cccc4Cl)nc23)cc1 [Example 87, N^2-(2,6-Dichloro-phenyl)-N^7-(4-methanesulfonyl-phenyl)-thiazolo[5,4-d]pyrimidine-2,7-diamine] |
| 33 | 63 | FC(F)(F)c1ccc(Nc2nc(N3CCCCC3)nc3sc(Nc4c(Cl)cccc4Cl)nc23)cc1 [Example 54, N^2-(2,6-Dichloro-phenyl)-5-piperidin-1-yl-N^7-(4-trifluoromethyl-phenyl)-thiazolo[5,4-d]pyrimidine-2,7-diamine] |
| 61 | 90 | NC(=O)c1cc(Cl)c(Nc2nc3c(Nc4ccc(C(F)(F)F)cc4)ncnc3s2)c(Cl)c1 [Example 235, 3,5-Dichloro-4-[7-(4-trifluoromethyl-phenylamino)-thiazolo[5,4-d]pyrimidin-2-ylamino]-benzamide] |
| 18 | 56 | CC(C)C1CCCN1c1nc(Nc2ccc(C(F)(F)F)c(Cl)c2)c2nc(Nc3c(Cl)cccc3Cl)sc2n1 (racemic) [Example 118, (racemic)-N^7-(3-Chloro-4-trifluoromethyl-phenyl)-N^2-(2,6-dichloro-phenyl)-5-(2-isopropyl-pyrrolidin-1-yl)-thiazolo[5,4-d]pyrimidine-2,7-diamine] |
| 1690 | > 6670 | FC(F)(F)c1ccc(Nc2nc3c(Nc4ccc(C(F)(F)F)cc4)ncnc3s2)cc1 [Example 22, N^2,N^7-Bis-(4-trifluoromethyl-phenyl)-thiazolo[5,4-d]pyrimidine-2,7-diamine] |
| 56 | 36 | Cc1cccc(C)c1Nc1nc2c(Nc3ccc(SC(C)C)cc3)ncnc2s1 [Example 112, N^2-(2,6-Dimethyl-phenyl)-NT-(4-isopropylsulfanyl-phenyl)-thiazolo[5,4-d]pyrimidine-2,7-diamine] |
| 73 | 172 | Cc1cccc(C)c1Nc1nc2c(Nc3ccc(Cl)cc3)ncnc2s1 [Example 132, N^7-(4-Chloro-phenyl)-N^2-(2,6-dimethyl-phenyl)-thiazolo[5,4-d]pyrimidine-2,7-diamine] |
| 87 | 170 | CC1CCCN1c1nc(Nc2ccc(C(F)(F)F)c(Cl)c2)c2nc(Nc3c(Cl)cccc3Cl)sc2n1 (racemic) [Example 130, (racemic)-N^7-(3-Chloro-4-trifluoromethyl-phenyl)-N^2-(2,6-dichloro-phenyl)-5-(2-methyl-pyrrolidin-1-yl)-thiazolo[5,4-d]pyrimidine-2,7-diamine] |
| 16 | 36 | Cc1nc(Nc2ccc(OC(F)(F)F)cc2)c2nc(Nc3c(Cl)cccc3Cl)sc2n1 [Example 111, N^2-(2,6-Dichloro-phenyl)-5-methyl-N^7-(4-trifluoromethoxy-phenyl)-thiazolo[5,4-d]pyrimidine-2,7-diamine] |
| ≥ 6670 | ≥ 6670 | Cc1nc(Nc2ccc(C(F)(F)F)cc2)c2nc(Nc3ncccc3C)sc2n1 [Example 211, 5-Methyl-N^2-(3-methyl-pyridin-2-yl)-N^7-(4-trifluoromethyl-phenyl)-thiazolo[5,4-d]pyrimidine-2,7-diamine] |
| 189 | 840 | CS(=O)(=O)c1ccc(Nc2ncnc3sc(Nc4c(Cl)cc(C(N)=O)cc4Cl)nc23)cc1 [Example 237, 3,5-Dichloro-4-[7-(4-methanesulfonyl-phenylamino)-thiazolo[5,4-d]pyrimidin-2-ylamino]-benzamide] |
| 1 | 11 | Cc1cccc(Cl)c1Nc1nc2c(Nc3ccc(C(F)(F)F)cc3)ncnc2s1 [Example 14, N^2-(2-Chloro-6-methyl-phenyl)-N^7-(4-trifluoromethyl-phenyl)-thiazolo[5,4-d]pyrimidine-2,7-diamine] |
| 2 | 2 | Cc1nc(Nc2ccc(S(=O)(=O)N(C)C)cc2)c2nc(Nc3c(Cl)cccc3Cl)sc2n1 [Example 81, 4-[2-(2,6-Dichloro-phenylamino)-5-methyl-thiazolo[5,4-d]pyrimidin-7-ylamino]-N,N-dimethyl-benzenesulfonamide] |
| 3 | 21 | CC(C)C1CCCN1c1nc(Nc2ccc(S(C)(=O)=O)cc2)c2nc(Nc3c(Cl)cccc3Cl)sc2n1 (racemic) [Example 177, (racemic)-N^2-(2,6-Dichloro-phenyl)-5-(2-isopropyl-pyrrolidin-1-yl)-N^7-(4-methanesulfonyl-phenyl)-thiazolo[5,4-d]pyrimidine-2,7-diamine] |
| 60 | 287 | CS(=O)(=O)c1ccc(Nc2nc(N3CCOCC3)nc3sc(Nc4c(Cl)cccc4Cl)nc23)cc1 [Example 178, N^2-(2,6-Dichloro-phenyl)-N^7-(4-methanesulfonyl-phenyl)-5-morpholin-4-yl-thiazolo[5,4-d]pyrimidine-2,7-diamine] |
| 55 | 208 | Cc1nc(Nc2ccc(C(F)(F)F)nc2)c2nc(Nc3c(-c4ccccc4)noc3C)sc2n1 [Example 26, 5-Methyl-N^2-(5-methyl-3-phenyl-isoxazol-4-yl)-N^7-(6-trifluoromethyl-pyridin-3-yl)-thiazolo[5,4-d]pyrimidine-2,7-diamine] |
| 4 | 17 | Cc1cccc(C)c1Nc1nc2c(Nc3ccc(S(=O)(=O)C(F)(F)F)cc3)ncnc2s1 [Example 99, N^2-(2,6-Dimethyl-phenyl)-N^7-(4-trifluoromethanesulfonyl-phenyl)-thiazolo[5,4-d]pyrimidine-2,7-diamine] |
| 287 | 312 | Cc1nc(Nc2ccc(C(F)(F)F)cc2)c2nc(Nc3ccccc3S(C)(=O)=O)sc2n1 [Example 197, N^2-(2-Methanesulfonyl-phenyl)-5-methyl-N^7-(4-trifluoromethylphenyl)-thiazolo[5,4-d]pyrimidine-2,7-diamine] |
| 4 | 7 | CN1CCN(S(=O)(=O)c2ccc(Nc3ncnc4sc(Nc5c(Cl)cccc5Cl)nc34)cc2)CC1 [Example 88, N^2-(2,6-Dichloro-phenyl)-N^7-[4-(4-methyl-piperazine-1-sulfonyl)-phenyl]-thiazolo[5,4-d]pyrimidine-2,7-diamine] |
| 313 | 1970 | Cc1ccc(Nc2ncnc3sc(Nc4c(C)cccc4C)nc23)c(O)c1 [Example 158, 2-[2-(2,6-Dimethyl-phenylamino)-thiazolo[5,4-d]pyrimidin-7-ylamino]-5-methyl-phenol] |
| 25 | 91 | Cc1nc(Nc2ccc(C(F)(F)F)cc2)c2nc(Nc3c(-c4ccccc4)noc3C)sc2n1 [Example 27, 5-Methyl-N^2-(5-methyl-3-phenyl-isoxazol-4-yl)-N^7-(4-trifluoromethyl-phenyl)-thiazolo[5,4-d]pyrimidine-2,7-diamine] |
| 34 | 223 | Cc1noc(C)c1Nc1nc2c(Nc3ccc(C(C)(C)C)cc3)ncnc2s1 [Example 51, N^7-(4-tert-Butyl-phenyl)-N^2-(3,5-dimethyl-isoxazol-4-yl)-thiazolo[5,4-d]pyrimidine-2,7-diamine] |
| 19 | 35 | Cc1nc(Nc2ccc(C(F)(F)F)c(Cl)c2)c2nc(Nc3c(C)cccc3C)sc2n1 [Example 247, N^7-(3-Chloro-4-trifluoromethyl-phenyl)-N^2-(2,6-dimethyl-phenyl)-5-methyl-thiazolo[5,4-d]pyrimidine-2,7-diamine] |
